Results as given in patent US20100298141A1, “SUBSTITUTED PYRIDINE N-OXIDE HERBICIDES” (E. I. DU PONT DE NEMOURS AND COMPANY, priority 2007, published 2010).

Experiments:
[1] = system: pigweed; assay: Test C pre-/postemergence test; format: in vivo, Amaranthus retroflexus
Procedure, shortened: (§1)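 Seeds were planted and treated preemergence with test chemical in a non-phytotoxic solvent mixture containing surfactant. Postemergence applications of the same formulation went onto plants 2 to 18 cm tall (1- to 4-leaf stage). A dash marks no test result.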

[2] = system: morningglory; assay: Test C pre-/postemergence test; format: in vivo, Ipomoea coccinea
Procedure, shortened: as §1

[3] = system: bermudagrass; assay: Test C pre-/postemergence test; format: in vivo, Cynodon dactylon
Procedure, shortened: as §1

[4] = system: wheat; assay: Test A pre-/postemergence greenhouse test; format: in vivo, Triticum aestivum; settings: for Wheat plant response rating: 0 to 100 scale; for Plant response rating, Wheat: 0 to 100 scale where 0 is no effect and 100 is complete control
Procedure, shortened: (§2)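 Test compounds in non-phytotoxic solvent with surfactant were applied as a preemergence soil spray to seeded loam/sand pots and, concurrently, postemergence to plants at 2–10 cm, one- to two-leaf stage. About ten days in greenhouse, then injury visually rated against untreated controls.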

[5] = system: Surinam grass; assay: Test C pre-/postemergence test; format: in vivo, Brachiaria decumbens
Procedure, shortened: as §1

[6] = system: barnyardgrass; assay: Test C flooded paddy test; format: in vivo, Echinochloa crus-galli; settings: Flood
Procedure, shortened: (§3)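 In-water treatment: compound dosed into 3 cm flood over soil, water level unchanged throughout. Controls run alongside; visual assessment at day 13–15.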

[7] = system: lambsquarters; assay: Test C pre-/postemergence test; format: in vivo, Chenopodium album
Procedure, shortened: as §1

[8] = system: velvetleaf; assay: Test A pre-/postemergence greenhouse test; format: in vivo, Abutilon theophrasti; settings: for Velvetleaf plant response rating: 0 to 100 scale; for Plant response rating, Velvetleaf: 0 to 100 scale where 0 is no effect and 100 is complete control
Procedure, shortened: as §2

[9] = system: johnsongrass; assay: Test C pre-/postemergence test; format: in vivo, Sorghum halepense
Procedure, shortened: as §1

[10] = system: corn; assay: Test A pre-/postemergence greenhouse test; format: in vivo, Zea mays; settings: for Corn plant response rating: 0 to 100 scale; for Plant response rating, Corn: 0 to 100 scale where 0 is no effect and 100 is complete control
Procedure, shortened: as §2

[11] = system: giant foxtail; assay: Test C pre-/postemergence test; format: in vivo, Setaria faberii
Procedure, shortened: as §1

[12] = system: rice; assay: Test C flooded paddy test; format: in vivo, Oryza sativa; settings: Flood
Procedure, shortened: as §3

[13] = system: giant foxtail; assay: Test A pre-/postemergence greenhouse test; format: in vivo, Setaria faberi; settings: for Foxtail, Giant plant response rating: 0 to 100 scale; for Plant response rating, Foxtail, Giant: 0 to 100 scale where 0 is no effect and 100 is complete control
Procedure, shortened: as §2

[14] = system: soybean; assay: Test C pre-/postemergence test; format: in vivo, Glycine max; settings: for Plant response rating (0 to 100), Soybean / Plant response rating, Soybean: Postemergence; for Plant response rating, Soybean: scale 0 to 100, 0 no effect, 100 complete control
Procedure, shortened: as §1

[15] = system: crabgrass; assay: Test C pre-/postemergence test; format: in vivo, Digitaria sanguinalis
Procedure, shortened: as §1

[16] = system: downy brome; assay: Test C pre-/postemergence test; format: in vivo, Bromus tectorum; settings: for Plant response rating, Bromegrass, Downy: scale 0 to 100, 0 no effect, 100 complete control
Procedure, shortened: as §1

[17] = Postemergence, 125 g ai/ha, scale 0 to 100, 0 no effect, 100 complete control
[18] = Postemergence, 250 g ai/ha, scale 0 to 100, 0 no effect, 100 complete control
[19] = Postemergence, 62 g ai/ha, scale 0 to 100, 0 no effect, 100 complete control
[20] = Postemergence, 125 g ai/ha, 0 is no effect, 100 is complete control
[21] = Postemergence, 500 g ai/ha, 0 is no effect, 100 is complete control
[22] = Preemergence, 125 g ai/ha, 0 no effect, 100 complete control
[23] = 31 g ai/ha, scale 0 to 100 (0 no effect, 100 complete control)
[24] = 62 g ai/ha, scale 0 to 100, 0 no effect, 100 complete control, 13 to 15 days
[25] = 125 g ai/ha, scale 0 to 100, 0 no effect, 100 complete control, 13 to 15 days
[26] = 250 g ai/ha, scale 0 to 100, 0 no effect, 100 complete control, 13 to 15 days
[27] = 62 g ai/ha, Preemergence, scale 0 to 100
[28] = 125 g ai/ha, preemergence, scale 0 (no effect) to 100 (complete control)
[29] = Preemergence, 31 g ai/ha, scale 0 to 100 (0 no effect, 100 complete control)
[30] = preemergence, 250 g ai/ha, scale 0 (no effect) to 100 (complete control)
[31] = 62 g ai/ha, scale 0 to 100 (0 no effect, 100 complete control)

CC(c1c(C(F)(F)F)nn(C)c1Cl)S(=O)(=O)c1ccc(Cl)c[n+]1[O-] (racemic) [Compound 40]
Plant response rating (0 to 100), Pigweed ([1]; Postemergence, 31 g ai/ha): 0
Plant response rating (0 to 100), Pigweed ([1]; Postemergence, 62 g ai/ha): 0
Plant response rating, Pigweed [1, 17]: 0
Plant response rating, Pigweed [1, 18]: 0
Plant response rating (0 to 100), Morningglory ([2]; Postemergence, 31 g ai/ha): 0
Plant response rating, Morningglory [2, 19]: 0
Plant response rating, Morningglory [2, 17]: 0
Plant response rating, Morningglory [2, 18]: 0
Plant response rating (0 to 100), Bermudagrass ([3]; Postemergence, 31 g ai/ha): 0
Plant response rating, Bermudagrass [3, 19]: 0
Plant response rating, Bermudagrass [3, 17]: 10
Plant response rating, Bermudagrass [3, 18]: 30
Wheat plant response rating [4, 20]: 30
Wheat plant response rating [4, 21]: 50
Wheat plant response rating [4, 22]: 0
Plant response rating, Wheat ([4]; Preemergence, 500 g ai/ha): 40
Plant response rating (0 to 100), Surinam Grass ([5]; Postemergence, 31 g ai/ha): 0
Plant response rating (0 to 100), Surinam Grass ([5]; Postemergence, 62 g ai/ha): 0
Plant response rating, Surinam Grass [5, 17]: 0
Plant response rating, Surinam Grass [5, 18]: 0
Plant response rating, Barnyardgrass [6, 23]: 0
Plant response rating, Barnyardgrass [6, 24]: 15
Plant response rating, Barnyardgrass [6, 25]: 60
Plant response rating, Barnyardgrass [6, 26]: 65
Plant response rating (0 to 100), Lambsquarters ([7]; Postemergence, 31 g ai/ha): 0
Plant response rating, Lambsquarters [7, 19]: 0
Plant response rating, Lambsquarters [7, 17]: 0
Plant response rating, Lambsquarters [7, 18]: 0
Velvetleaf plant response rating [8, 20]: 50
Velvetleaf plant response rating [8, 21]: 60
Velvetleaf plant response rating [8, 22]: 0
Plant response rating, Velvetleaf ([8]; Preemergence, 500 g ai/ha): 50
Plant response rating (0 to 100), Johnsongrass ([9]; Postemergence, 31 g ai/ha): 0
Plant response rating, Johnsongrass [9, 19]: 20
Plant response rating, Johnsongrass [9, 17]: 20
Plant response rating, Johnsongrass [9, 18]: 60
Corn plant response rating [10, 20]: 0
Corn plant response rating [10, 21]: 40
Corn plant response rating [10, 22]: 0
Plant response rating, Corn ([10]; Preemergence, 500 g ai/ha): 0
Plant response rating (0 to 100), Foxtail, Giant ([11]; Postemergence, 31 g ai/ha): 0
Plant response rating, Foxtail, Giant [11, 19]: 0
Plant response rating, Foxtail, Giant [11, 17]: 0
Plant response rating, Foxtail, Giant [11, 18]: 0
Plant response rating, Rice [12, 23]: 0
Plant response rating, Rice [12, 24]: 15
Plant response rating, Rice [12, 25]: 60
Plant response rating, Rice [12, 26]: 65
Foxtail, Giant plant response rating [13, 20]: 80
Foxtail, Giant plant response rating [13, 21]: 90
Foxtail, Giant plant response rating [13, 22]: 90
Plant response rating, Foxtail, Giant ([13]; Preemergence, 500 g ai/ha): 100
Plant response rating (0 to 100), Soybean ([14]; 31 g ai/ha): 0
Plant response rating (0 to 100), Soybean ([14]; 62 g ai/ha): 0
Plant response rating, Soybean ([14]; 125 g ai/ha): 0
Plant response rating, Soybean ([14]; 250 g ai/ha): 0
Plant response rating (0 to 100), Crabgrass, Large ([15]; Postemergence, 31 g ai/ha): 0
Plant response rating, Crabgrass, Large [15, 19]: 0
Plant response rating, Crabgrass, Large [15, 17]: 0
Plant response rating, Crabgrass, Large [15, 18]: 0
Plant response rating (0 to 100), Bromegrass, Downy ([16]; Postemergence, 31 g ai/ha): 0
Plant response rating, Bromegrass, Downy ([16]; Postemergence, 62 g ai/ha): 0
Plant response rating, Bromegrass, Downy ([16]; Postemergence, 125 g ai/ha): 0
Plant response rating, Bromegrass, Downy ([16]; Postemergence, 250 g ai/ha): 0

Cc1cc([S+]([O-])Cc2c(C(F)(F)F)nn(C)c2OCC(F)(F)F)[n+]([O-])cc1Cl (stereo not shown) [Compound 70]
Pigweed plant response rating [1, 27]: 100
Pigweed plant response rating [1, 28]: 100
Plant response rating, Pigweed [1, 29]: 100
Pigweed plant response rating [1, 30]: 100
Morningglory plant response rating [2, 27]: 80
Morningglory plant response rating [2, 28]: 100
Plant response rating, Morningglory [2, 29]: 0
Morningglory plant response rating [2, 30]: 100
Bermudagrass plant response rating ([3]; 62 g ai/ha, Preemergence, scale 0 to 100 (0 no effect, 100 complete control)): 100
Bermudagrass plant response rating [3, 28]: 100
Plant response rating, Bermudagrass [3, 29]: 100
Bermudagrass plant response rating [3, 30]: 100
Plant response rating, Wheat ([4]; Postemergence, 125 g ai/ha): 70
Wheat plant response rating [4, 21]: 70
Wheat plant response rating [4, 22]: 50
Plant response rating, Wheat ([4]; Preemergence, 500 g ai/ha): 90
Surinam Grass plant response rating [5, 27]: 85
Surinam Grass plant response rating [5, 28]: 90
Plant response rating, Surinam Grass [5, 29]: 65
Surinam Grass plant response rating [5, 30]: 100
Plant response rating, Barnyardgrass [6, 31]: 0
Plant response rating, Barnyardgrass [6, 26]: 95
Lambsquarters plant response rating [7, 27]: 100
Lambsquarters plant response rating [7, 28]: 100
Plant response rating, Lambsquarters [7, 29]: 100
Lambsquarters plant response rating [7, 30]: 100
Plant response rating, Velvetleaf ([8]; Postemergence, 125 g ai/ha): 60
Velvetleaf plant response rating [8, 21]: 70
Velvetleaf plant response rating [8, 22]: 40
Plant response rating, Velvetleaf ([8]; Preemergence, 500 g ai/ha): 100
Johnsongrass plant response rating [9, 27]: 100
Johnsongrass plant response rating [9, 28]: 100
Plant response rating, Johnsongrass [9, 29]: 70
Johnsongrass plant response rating [9, 30]: 100
Plant response rating, Corn ([10]; Postemergence, 125 g ai/ha): 50
Corn plant response rating [10, 21]: 80
Corn plant response rating [10, 22]: 20
Plant response rating, Corn ([10]; Preemergence, 500 g ai/ha): 90
Foxtail, Giant plant response rating [11, 27]: 100
Plant response rating, Foxtail, Giant [11, 29]: 90
Foxtail, Giant plant response rating [11, 30]: 100
Plant response rating, Rice [12, 31]: 45
Plant response rating, Rice [12, 26]: 90
Plant response rating, Foxtail, Giant ([13]; Postemergence, 125 g ai/ha): 60
Foxtail, Giant plant response rating [13, 21]: 90
Foxtail, Giant plant response rating [13, 22]: 100
Plant response rating, Foxtail, Giant ([13]; Preemergence, 500 g ai/ha): 100
Soybean plant response rating [14, 27]: 30
Soybean plant response rating [14, 28]: 80
Soybean plant response rating [14, 30]: 85
Crabgrass, Large plant response rating [15, 27]: 100
Crabgrass, Large plant response rating [15, 28]: 100
Plant response rating, Crabgrass, Large [15, 29]: 85
Crabgrass, Large plant response rating [15, 30]: 100
Bromegrass, Downy plant response rating [16, 27]: 80
Bromegrass, Downy plant response rating [16, 28]: 100
Bromegrass, Downy plant response rating [16, 30]: 100
